Assays:
[1] = Antiproliferative activity against Adenovirus type 12 E1A transformed rat 3Y1cells after 3 days by tetrazolium based cell counting assay; conditions: 72 h
[2] = Antiproliferative activity against rat 3Y1 cells after 3 days by tetrazolium based cell counting assay
[3] = target: ATP synthase subunit beta, mitochondrial (Saccharomyces cerevisiae S288c, UniProt P00830); test: Inhibition of yeast mitochondrial F0F1-ATPase
NCI-H292 = test: Cytotoxicity activity in human NCI-H292 cells after 48 hrs by thiazolyl blue tetrazolium bromide assay; format: functional, cell-based; conditions: NCI-H292, 48 h

ATP synthase subunit beta, mitochondrial, sequence (P00830 whole entry): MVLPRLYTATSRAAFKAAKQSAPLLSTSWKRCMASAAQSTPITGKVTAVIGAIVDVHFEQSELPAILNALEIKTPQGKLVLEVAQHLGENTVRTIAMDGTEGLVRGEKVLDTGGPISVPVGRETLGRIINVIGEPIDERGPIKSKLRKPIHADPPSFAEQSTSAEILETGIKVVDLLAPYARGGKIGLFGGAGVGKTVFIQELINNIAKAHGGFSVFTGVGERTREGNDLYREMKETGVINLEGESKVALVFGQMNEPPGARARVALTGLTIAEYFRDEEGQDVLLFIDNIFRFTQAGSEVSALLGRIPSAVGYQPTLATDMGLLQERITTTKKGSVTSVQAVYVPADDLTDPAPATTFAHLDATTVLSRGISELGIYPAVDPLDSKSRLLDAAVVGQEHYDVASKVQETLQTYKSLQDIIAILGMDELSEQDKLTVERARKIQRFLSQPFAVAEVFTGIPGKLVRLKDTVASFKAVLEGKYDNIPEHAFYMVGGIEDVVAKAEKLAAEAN

| IC50 [3] | Compound | GI50 [1] | GI50 at 72 h [2] | EC50 (NCI-H292) |
| --- | --- | --- | --- | --- |
| 800 nM | COC[C@@H](CC1O[C@@](O)([C@H](O)C2CC(=O)/C(C)=C/C(C)=C/C(C)=C/[C@@H](C)[C@H](O[C@@H]3O[C@@H](C)[C@H](OC)[C@@H](O)[C@@H]3O)/C=C/C(C)=C/CC[C@H](O)[C@@H](OC)C2)[C@H](C)[C@@H](O)[C@H]1C)O[C@H]1C[C@](C)(O)[C@@H](O[C@H]2C[C@@H](OC)[C@H](OC(C)=O)[C@@H](C)O2)[C@H](C)O1 (some centres not stated) | 9.8 nM | > 1000 nM |  |
| 400 nM | COC[C@@H](CC1O[C@@](O)([C@H](O)C2CC(=O)/C(C)=C/C(C)=C/C(C)=C/[C@@H](C)[C@H](O[C@@H]3O[C@@H](C)[C@H](OC)[C@@H](O)[C@@H]3O)/C=C/C(C)=C/CC[C@H](O)[C@@H](OC)C2)[C@H](C)[C@@H](OC(C)=O)[C@H]1C)O[C@H]1C[C@](C)(O)[C@@H](O[C@H]2C[C@@H](OC)[C@H](OC(C)=O)[C@@H](C)O2)[C@H](C)O1 (some centres not stated) | 9.5 nM | > 600 nM |  |
| 800 nM | COC[C@@H](CC1O[C@@](O)([C@H](O)C2CC(=O)/C(C)=C/C(C)=C/C(C)=C/[C@@H](C)[C@H](O[C@@H]3O[C@@H](C)[C@H](OC)[C@@H](O)[C@@H]3O)/C=C/C(C)=C/CC[C@H](OC(C)=O)[C@@H](OC)C2)[C@H](C)[C@@H](O)[C@H]1C)O[C@H]1C[C@](C)(O)[C@@H](O[C@H]2C[C@@H](OC)[C@H](O)[C@@H](C)O2)[C@H](C)O1 (some centres not stated) | 56 nM | > 1000 nM |  |
| 400 nM | COC[C@@H](CC1O[C@@](O)([C@H](O)C2CC(=O)/C(C)=C/C(C)=C/C(C)=C/[C@@H](C)[C@H](O[C@@H]3O[C@@H](C)[C@H](OC)[C@@H](OC(C)=O)[C@@H]3O)/C=C/C(C)=C/CC[C@H](O)[C@@H](OC)C2)[C@H](C)[C@@H](O)[C@H]1C)O[C@H]1C[C@](C)(O)[C@@H](O[C@H]2C[C@@H](OC)[C@H](O)[C@@H](C)O2)[C@H](C)O1 (some centres not stated) | 2.7 nM | > 1000 nM |  |
| 1100 nM | COC[C@@H](CC1O[C@@](O)([C@H](OC(C)=O)C2CC(=O)/C(C)=C/C(C)=C/C(C)=C/[C@@H](C)[C@H](O[C@@H]3O[C@@H](C)[C@H](OC)[C@@H](O)[C@@H]3O)/C=C/C(C)=C/CC[C@H](O)[C@@H](OC)C2)[C@H](C)[C@@H](O)[C@H]1C)O[C@H]1C[C@](C)(O)[C@@H](O[C@H]2C[C@@H](OC)[C@H](O)[C@@H](C)O2)[C@H](C)O1 (some centres not stated) | 11 nM | > 1000 nM |  |

Second part, the compound before the results:

| Compound | IC50 [3] | GI50 [1] | GI50 at 72 h [2] | EC50 (NCI-H292) |
| --- | --- | --- | --- | --- |
| COC[C@@H](CC1O[C@@](O)([C@@H]2OC(=O)/C(C)=C/C(C)=C/C(C)=C/[C@@H](C)[C@H](O[C@@H]3O[C@@H](C)[C@H](OC)[C@@H](O)[C@@H]3O)/C=C/C(C)=C/CC[C@H](O)[C@@H](OC)C[C@@H]2O)[C@H](C)[C@@H](O)[C@H]1C)O[C@H]1C[C@](C)(O)[C@@H](O[C@H]2C[C@@H](OC)[C@H](O)[C@@H](C)O2)[C@H](C)O1 (some centres not stated) [ISOAPOPTOLIDIN] | 17000 nM | 9 nM | > 1000 nM |  |
| COC[C@@H](CC1O[C@@](O)([C@H](OC(C)=O)C2CC(=O)/C(C)=C/C(C)=C/C(C)=C/[C@@H](C)[C@H](O[C@@H]3O[C@@H](C)[C@H](OC)[C@@H](OC(C)=O)[C@@H]3OC(C)=O)/C=C/C(C)=C/CC[C@H](O)[C@@H](OC)C2)[C@H](C)[C@@H](O)[C@H]1C)O[C@H]1C[C@](C)(O)[C@@H](O[C@H]2C[C@@H](OC)[C@H](O)[C@@H](C)O2)[C@H](C)O1 (some centres not stated) |  |  |  | 48 nM |
| COC[C@@H](CC1O[C@@](O)([C@H](OC)C2CC(=O)/C(C)=C/C(C)=C/C(C)=C/[C@@H](C)[C@H](O[C@@H]3O[C@@H](C)[C@H](OC)[C@@H](O)[C@@H]3O)/C=C/C(C)=C/CC[C@H](O)[C@@H](OC)C2)[C@H](C)[C@@H](O)[C@H]1C)O[C@H]1C[C@](C)(O)[C@@H](O[C@H]2C[C@@H](OC)[C@H](O)[C@@H](C)O2)[C@H](C)O1 (some centres not stated) | 2800 nM | 12 nM | > 1000 nM |  |
| COC[C@@H](CC1O[C@@](O)([C@H](O)C2CC(=O)/C(C)=C/C(C)=C/C(C)=C/[C@@H](C)[C@H](O[C@@H]3O[C@@H](C)[C@H](OC)[C@@H](O)[C@@H]3OC(=O)c3ccccc3)/C=C/C(C)=C/CC[C@H](O)[C@@H](OC)C2)[C@H](C)[C@@H](O)[C@H]1C)O[C@H]1C[C@](C)(O)[C@@H](O[C@H]2C[C@@H](OC)[C@H](O)[C@@H](C)O2)[C@H](C)O1 (some centres not stated) | 300 nM | 3.6 nM | > 1000 nM |  |
| COC[C@@H](CC1O[C@@](O)([C@H](O)C2CC(=O)/C(C)=C/C(C)=C/C(C)=C/[C@@H](C)[C@H](O[C@@H]3O[C@@H](C)[C@H](OC)[C@@H](O)[C@@H]3OC(C)=O)/C=C/C(C)=C/CC[C@H](O)[C@@H](OC)C2)[C@H](C)[C@@H](O)[C@H]1C)O[C@H]1C[C@](C)(O)[C@@H](O[C@H]2C[C@@H](OC)[C@H](O)[C@@H](C)O2)[C@H](C)O1 (some centres not stated) |  |  |  | 60 nM |
| COC[C@@H](CC1O[C@@](O)([C@H](OC(C)=O)C2CC(=O)/C(C)=C/C(C)=C/C(C)=C/[C@@H](C)[C@H](O[C@@H]3O[C@@H](C)[C@H](OC)[C@@H](O)[C@@H]3OC(C)=O)/C=C/C(C)=C/CC[C@H](O)[C@@H](OC)C2)[C@H](C)[C@@H](O)[C@H]1C)O[C@H]1C[C@](C)(O)[C@@H](O[C@H]2C[C@@H](OC)[C@H](OC(C)=O)[C@@H](C)O2)[C@H](C)O1 (some centres not stated) |  |  |  | 48 nM |

From ChEMBL document CHEMBL1154294, “An approach to the site-selective diversification of apoptolidin A with peptide-based catalysts” (J Nat Prod, 2009)
